Assay results published in ChEMBL document CHEMBL1201862, “PubChem BioAssay data set” (2004).
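Results reflect a 48-hour exposure of cells in 96-well plates to compound at five concentrations. GI50 marks 50% less growth.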 Activity calls are given as the source filed them. Cut-off read from the data, not from the text of the source: active = GI50 up to about 1.1 µM and inactive = higher.

Legend:
Test in all cases: NCI anticancer screen, dose series, 48 h
ACHN = tested on: ACHN
CAKI-1 = tested on: CAKI-1
COLO 205 = tested on: COLO 205
HCC 2998 = tested on: HCC 2998
HCT-116 = tested on: HCT-116
HOP-92 = tested on: HOP-92
MCF7 = tested on: MCF7
MDA-MB-435 = tested on: MDA-MB-435
NCI-H23 = tested on: NCI-H23
NCI-H460 = tested on: NCI-H460
OVCAR-3 = tested on: OVCAR-3
RXF 393 = tested on: RXF 393
SF-268 = tested on: SF-268
SF-539 = tested on: SF-539
SK-MEL-5 = tested on: SK-MEL-5
SR = tested on: SR
SW-620 = tested on: SW-620
TK-10 = tested on: TK-10
BT-549 = tested on: BT-549
HL-60 = tested on: HL-60

SMILES | GI50 (ACHN) | GI50 (CAKI-1) | GI50 (COLO 205) | GI50 (HCC 2998) | GI50 (HCT-116) | GI50 (HOP-92) | GI50 (MCF7) | GI50 (MDA-MB-435) | GI50 (NCI-H23) | GI50 (NCI-H460) | GI50 (OVCAR-3) | GI50 (RXF 393) | GI50 (SF-268) | GI50 (SF-539) | GI50 (SK-MEL-5) | GI50 (SR) | GI50 (SW-620) | GI50 (TK-10) | GI50 (BT-549) | GI50 (HL-60)
N#CCCC1(CCC#N)CCCCCCC(CCC#N)(CCC#N)C(=O)C1=O | > 100 µM (inactive) | > 100 µM (inactive) | 36.8 µM (inactive) | 67.1 µM (inactive) | > 100 µM (inactive) | > 100 µM (inactive) | 70.5 µM (inactive) | > 100 µM (inactive) | > 100 µM (inactive) | > 100 µM (inactive) | > 100 µM (inactive) | > 100 µM (inactive) | > 100 µM (inactive) | > 100 µM (inactive) | > 100 µM (inactive) | > 100 µM (inactive) | > 100 µM (inactive) | > 100 µM (inactive) |  | 
C/C=C(/C)c1cnc(CC(C)C)c(=O)[nH]1 | > 100 µM (inactive) | > 100 µM (inactive) | > 100 µM (inactive) | > 100 µM (inactive) | > 100 µM (inactive) | > 100 µM (inactive) |  | > 100 µM (inactive) | > 100 µM (inactive) | > 100 µM (inactive) | > 100 µM (inactive) | > 100 µM (inactive) | > 100 µM (inactive) |  | > 100 µM (inactive) | > 100 µM (inactive) | > 100 µM (inactive) | > 100 µM (inactive) | > 100 µM (inactive) | 
Clc1ccc(Cl)c(SCCCN2CCNCC2)c1 | 15.1 µM (inactive) | 17.8 µM (inactive) | 16.2 µM (inactive) | 3.61 µM (inactive) | 18.3 µM (inactive) | 15 µM (inactive) | 18.4 µM (inactive) | 14 µM (inactive) | 19.4 µM (inactive) | 18.4 µM (inactive) | 19.2 µM (inactive) | 14.4 µM (inactive) | 16.6 µM (inactive) | 27.5 µM (inactive) | 15.2 µM (inactive) |  | 22.3 µM (inactive) | 16.5 µM (inactive) | 17.1 µM (inactive) | 14.2 µM (inactive)
CC1(C)N=C(/C=N/O)C(C)(C)N1O | > 100 µM (inactive) |  | > 100 µM (inactive) | > 100 µM (inactive) | > 100 µM (inactive) | > 100 µM (inactive) | > 100 µM (inactive) | > 100 µM (inactive) | > 100 µM (inactive) | > 100 µM (inactive) | > 100 µM (inactive) | > 100 µM (inactive) | > 100 µM (inactive) | > 100 µM (inactive) | > 100 µM (inactive) | > 100 µM (inactive) | > 100 µM (inactive) | > 100 µM (inactive) |  | > 100 µM (inactive)
O=Cc1ccc(-c2ccc(-c3ccc(C=O)s3)o2)s1 | > 100 µM (inactive) | 0.418 µM (active) | 18.7 µM (inactive) | 18 µM (inactive) | 8.53 µM (inactive) | > 89.3 µM (inactive) |  | 71.4 µM (inactive) | > 100 µM (inactive) | 1.91 µM (inactive) | 1.44 µM (inactive) | 0.233 µM (active) | > 100 µM (inactive) | > 82.4 µM (inactive) | > 87.7 µM (inactive) | > 40.8 µM (inactive) | > 80.7 µM (inactive) | 1.46 µM (inactive) | 77.3 µM (inactive) | > 100 µM (inactive)
NCCCCN(CCCN)Cc1ccc2ccccc2c1 | 22.8 µM (inactive) | 13.8 µM (inactive) | 35.2 µM (inactive) | 10.6 µM (inactive) | 36.7 µM (inactive) | 29 µM (inactive) | 54.1 µM (inactive) | > 100 µM (inactive) | 25.3 µM (inactive) | 15.7 µM (inactive) |  | 63.4 µM (inactive) | 12.6 µM (inactive) | 30.8 µM (inactive) | 92.7 µM (inactive) |  | > 100 µM (inactive) | > 100 µM (inactive) | 90.4 µM (inactive) | 67.5 µM (inactive)
CC1=NN(c2cccc(Cl)c2)C(=N/c2nc3ccccc3s2)/C1=C\c1cccs1 | 39 µM (inactive) | 52.7 µM (inactive) |  | 35 µM (inactive) | 44.8 µM (inactive) | 32.4 µM (inactive) | 33.9 µM (inactive) | 55.6 µM (inactive) | 22.5 µM (inactive) | 35.6 µM (inactive) | 13 µM (inactive) | 51.3 µM (inactive) | 33.2 µM (inactive) | 42 µM (inactive) | 28.1 µM (inactive) | 19.5 µM (inactive) | 54.2 µM (inactive) | 45.7 µM (inactive) |  | 14.3 µM (inactive)
CCOC(=O)/C(C(=O)Nc1cccc(Cl)c1)=C(/N)N1CCCC1 | > 100 µM (inactive) | > 100 µM (inactive) | > 100 µM (inactive) | > 100 µM (inactive) | > 100 µM (inactive) |  | > 100 µM (inactive) | > 100 µM (inactive) | > 100 µM (inactive) | > 100 µM (inactive) | > 100 µM (inactive) | > 100 µM (inactive) | > 100 µM (inactive) | > 100 µM (inactive) |  |  | > 100 µM (inactive) | > 100 µM (inactive) | > 100 µM (inactive) | > 100 µM (inactive)
O=[N+]([O-])c1cccc2nccc(NCCN3CCOCC3)c12 | 22.4 µM (inactive) | 2.6 µM (inactive) | 19.6 µM (inactive) | 11.5 µM (inactive) | 13.4 µM (inactive) | 33.2 µM (inactive) | 9.46 µM (inactive) | 22.9 µM (inactive) | 11.7 µM (inactive) | 6.87 µM (inactive) | 14.2 µM (inactive) | 11.6 µM (inactive) | 20.5 µM (inactive) | 20.3 µM (inactive) | 10 µM (inactive) | 10.1 µM (inactive) | 8.91 µM (inactive) | 23.7 µM (inactive) |  | 10.6 µM (inactive)
Cc1c(Cl)cccc1/N=N/C(=O)NNc1cccc(Cl)c1C | 20.1 µM (inactive) |  |  | 17.3 µM (inactive) | 15.3 µM (inactive) |  |  | 18.2 µM (inactive) | 16.7 µM (inactive) | 16.6 µM (inactive) | 17.6 µM (inactive) |  | 16.9 µM (inactive) |  | 15.3 µM (inactive) | 21.3 µM (inactive) | 17.1 µM (inactive) | 15.8 µM (inactive) | 14.1 µM (inactive) | 17.8 µM (inactive)
C[C@H]1CC[C@@H]2[C@@H](C)C[C@H]3[C@@H]4C(C)(C)OC(=O)[C@]4(C)C(=O)[C@@]23C1=O | > 100 µM (inactive) | > 100 µM (inactive) | > 100 µM (inactive) | > 100 µM (inactive) | > 100 µM (inactive) | 85.5 µM (inactive) | > 100 µM (inactive) | > 100 µM (inactive) | > 100 µM (inactive) | > 100 µM (inactive) | > 100 µM (inactive) |  | > 100 µM (inactive) | > 100 µM (inactive) | > 100 µM (inactive) |  | > 100 µM (inactive) | > 100 µM (inactive) | > 100 µM (inactive) | > 100 µM (inactive)
CCNc1cc2c3c(c1)CCCN3CCC2 | 19.6 µM (inactive) | 31.6 µM (inactive) | 12.1 µM (inactive) | 33 µM (inactive) | 6.67 µM (inactive) | 12.6 µM (inactive) | 40.7 µM (inactive) | 3.44 µM (inactive) | 6.31 µM (inactive) | 15.1 µM (inactive) | 2.32 µM (inactive) | 72.8 µM (inactive) | 16.9 µM (inactive) | 20.9 µM (inactive) | 13.7 µM (inactive) | 4.22 µM (inactive) | 21.3 µM (inactive) | 31.8 µM (inactive) |  | 11.8 µM (inactive)
CCOC(=O)CCC(NC(=O)C(N)c1ccc([N+](=O)[O-])cc1)C(=O)NC(CCC(=O)OCC)C(=O)OCC (stereo not given) | > 100 µM (inactive) |  | > 100 µM (inactive) | > 100 µM (inactive) | > 100 µM (inactive) | > 100 µM (inactive) | > 100 µM (inactive) |  | > 100 µM (inactive) | > 100 µM (inactive) |  |  |  |  | > 100 µM (inactive) | > 100 µM (inactive) | > 100 µM (inactive) | > 100 µM (inactive) | > 100 µM (inactive) | > 100 µM (inactive)
CN(C)c1cccc(NC2=NCCO2)c1 | 90.4 µM (inactive) | > 100 µM (inactive) | 20.6 µM (inactive) | 89.9 µM (inactive) | 35.9 µM (inactive) | 12.2 µM (inactive) | 50.5 µM (inactive) | 19.8 µM (inactive) | 23.6 µM (inactive) | 32.4 µM (inactive) | 59.4 µM (inactive) | > 100 µM (inactive) | 92 µM (inactive) | 46.6 µM (inactive) | 43.6 µM (inactive) | 30.3 µM (inactive) | 57.7 µM (inactive) | > 100 µM (inactive) |  | 23.1 µM (inactive)
C[C@H]1[C@H](N2CCCC2)O[Si](C(C)(C)C)(C(C)(C)C)[C@@H]1C | 46.8 µM (inactive) | > 100 µM (inactive) | > 100 µM (inactive) | > 100 µM (inactive) | > 100 µM (inactive) | < 0.01 µM (active) | > 100 µM (inactive) | > 100 µM (inactive) | > 100 µM (inactive) |  | > 100 µM (inactive) |  |  | > 100 µM (inactive) | > 100 µM (inactive) |  | > 100 µM (inactive) | > 100 µM (inactive) | > 100 µM (inactive) | 13.7 µM (inactive)
CC(Nc1cccc(Cl)c1)c1ccncc1 (stereo not given) | 87.1 µM (inactive) | 40.7 µM (inactive) | > 100 µM (inactive) |  | 70.8 µM (inactive) | 73.1 µM (inactive) | > 100 µM (inactive) | 56.2 µM (inactive) | 71.3 µM (inactive) | > 100 µM (inactive) | 49.4 µM (inactive) | 42.8 µM (inactive) | > 100 µM (inactive) | > 100 µM (inactive) | 31.6 µM (inactive) |  | > 100 µM (inactive) | > 100 µM (inactive) | > 100 µM (inactive) | 
